The conditions of series [1]: cited from earlier work.
The nature of series [2]: milogP calculated using Molinspiration Cheminformatics. The note with it: Table SI14.
Series [3] is described as follows: log P determination by 19F NMR shake-flask method with internal fluorinated reference (octanol/water). To be noted: for ΔlogP (exp. logP vs logP lit): Table SI12.
Setting [4] is: octanol/water, error (mean logP to three decimals), reference TFE (+0.36).
Where [5] appears, read: octanol/water, logP, 19F NMR, 25 °C, average value.
The mark [6] stands for this setting: octanol/water, logP, single experiment, reference TFE (+0.36).
[7] abbreviates: shake-flask, 1H or 19F NMR, temperature not reported, ref N. Muller, J. Pharm. Sci. 1986.
Where [8] appears, read: octanol/water, Average logP, 25 °C, reference TFE (+0.36).
Setting [9] is: ref chemidplus database and N. Muller 1986.
[10] abbreviates: method and temperature not provided, ref U.S. National Library of Medicine online database (chemidplus).

As a reminder, the logP is the decadic logarithm of the partition coefficient of the neutral form, usually between octanol and water. Read a high logP as higher lipophilicity.

Molecules are shown by their SMILES. Several values for one entry are separate records, joined by “and”; a condition that tells them apart may be missing. Equal entries are not always repeated. Where two headings read alike, the source gives them in different places.

`Oc1ccccc1F` [SI4, o-fluorophenol]: the “logP (lit)” value is “+1.64” in series [1] (method and temperature not provided, ref C. Hansch, A. Leo, Substituent constants, Wiley 1979); “+1.71” in series [1] (ref chemidplus database, Hansch, Leo 1979 and Fujita, Iwasa, Hansch 1964 (shake-flask, spectrophotometer, 25 ± 5 °C)). For the same compound, in series [2], the “ΔlogP (milogP vs logP exp)” value is on record as “+0.13”. The logP in series [3] (setting [4]), in series [3] (setting [5]) and in series [3] (setting [6]) was 1.7 each time.
Consider `CC(O)C(F)(F)F` (stereo not shown) [compound 6], for which the “logP (lit)” value in series [1] (ref chemidplus database, Dillingham et al. 1973 and Hansch, Leo 1979) is reported as “+0.71”; in series [1] (setting [7]) it was “+0.70”. Besides, in series [2], the “ΔlogP (milogP vs logP exp)” value was “+0.27”. Besides, the logP in series [3] (setting [8]) came to 0.71; in series [3] (setting [4]), 0.715; in series [3] (setting [5]), 0.7; in series [3] (setting [6]) it was 0.712.
For `OCCC(F)(F)F` [compound 12], the “logP (lit)” value in series [1] (setting [9]) is given as “+0.39”. Moreover, the “ΔlogP (milogP vs logP exp)” value in series [2] was “+0.47”. The “ΔlogP (exp. logP vs logP lit)” value in series [3] is “+0.02”. The logP in series [3] (setting [8]) came to 0.41; in series [3] (setting [4]), 0.414; in series [3] (setting [6]), 0.413.
Regarding `OCCCC(F)(F)F` [compound 23, 4,4,4-trifluoro-1-butanol], the “logP (lit)” value in series [1] (setting [9]) is reported as “+0.90”. Moreover, the “ΔlogP (milogP vs logP exp)” value in series [2] is on record as “+0.24”. Further, the “Average logP” value in series [3] (25 °C, reference TFE (+0.36)) was “+0.91”. The “ΔlogP (exp. logP vs logP lit)” value in series [3] is listed as “+0.01”. Further, the logP entry in series [3] (octanol/water, 19F NMR, 25 °C, average value) was “+0.91”; in series [3] (setting [8]), 0.91; in series [3] (setting [4]), 0.91; in series [3] (setting [5]), 0.91; in series [3] (setting [6]) it was 0.918.
With `OCC(F)(F)C(F)(F)F` [compound 13, CF3CF2CH2OH], the “logP (lit)” value in series [1] (ref chemidplus database, Hansch, Leo 1979 and Leo, Elkins, Chem. Rev. 1971) is recorded as 1.23. Moreover, in series [2], the “ΔlogP (milogP vs logP exp)” value is recorded as “+0.05”. Moreover, the “Average logP” value in series [3] (25 °C, reference TFE (+0.36)) is recorded as “+1.20”. The “ΔlogP (exp. logP vs logP lit)” value in series [3] is -0.03. The logP in series [3] (setting [8]) stood at 1.2; in series [3] (octanol/water, average logP, mA 2.0 mg, mREF 0.8 mg, reference CF3CH2OH) it was 1.2; in series [3] (octanol/water, average logP, mA 10.0 mg, mREF 4.0 mg) it was 1.2; in series [3] (octanol/water, average logP, mA 70.0 mg, mREF 30.0/70.0 mg), 1.18; in series [3] (octanol/water, average logP, mA 120.0 mg, mREF 60.0 mg), 1.18; in series [3] (setting [4]) it was 1.2. The logP in series [3] (setting [5]) is 1.2; in series [3] (octanol/water, logP, single experiment, mA 2.0 mg, mREF 0.8 mg, reference CF3CH2OH) it was 1.2; in series [3] (octanol/water, logP, single experiment, mA 10.0 mg, mREF 4.0 mg), 1.2; in series [3] (octanol/water, logP, single experiment, mA 70.0 mg, mREF 30.0/70.0 mg), 1.18; in series [3] (octanol/water, logP, single experiment, mA 120.0 mg, mREF 60.0 mg), 1.17; in series [3] (setting [6]) it was 1.2. Also, the logP in series [3] (single experiment, mA 2.0 mg, mREF 0.8 mg, reference CF3CH2OH) is 1.200; in series [3] (single experiment, mA 10.0 mg, mREF 4.0 mg), 1.200 and 1.195; in series [3] (single experiment, mA 70.0 mg, mREF 30.0/70.0 mg), 1.179; in series [3] (single experiment, mA 120.0 mg, mREF 60.0 mg) it was 1.178 and 1.174; in series [3] (single experiment, reference TFE (+0.36)), “+1.200 and +1.199”. Besides, the “mean logP” value in series [3] (reference TFE (+0.36)) amounted to 1.200.
Take `OCCCCC(F)(F)F` [compound 35]: the “logP (lit)” value in series [1] (setting [7]) was “+1.15”. In series [2], the “ΔlogP (milogP vs logP exp)” value is reported as “+0.43”. In series [3] (25 °C, reference TFE (+0.36)), the “Average logP” value is listed as “+1.22”. The “ΔlogP (exp. logP vs logP lit)” value in series [3] is on record as “+0.07”. The logP in series [3] (setting [8]), in series [3] (setting [4]), in series [3] (setting [5]) and in series [3] (setting [6]) was 1.22 in each case.
Take `OC(C(F)(F)F)C(F)(F)F` [compound 7]: the “logP (lit)” value in series [1] (setting [10]) is listed as “+1.66”. In series [3], the “ΔlogP (exp. logP vs logP lit)” value was “+0.03”. In addition, the logP in series [3] (setting [8]), in series [3] (setting [4]) and in series [3] (setting [6]) was 1.69 throughout.
As for `CC(C)(C)[C@H]1CC[C@@H](O)CC1` [L, reference compound], the “logP (lit)” value in series [1] (setting [10]) is reported as “+3.02”.
For the compound `CC(C)(C)[C@H]1CC[C@H](O)CC1` [K, reference compound], in series [1] (setting [10]), the “logP (lit)” value is on record as “+3.09”.
With `OC[C@H](F)[C@@H](F)CO` [compound 39], the “ΔlogP (milogP vs logP exp)” value in series [2] is given as “+0.63”. Also, the logP in series [3] (octanol/water, Average logP, 25 °C, reference FE (-0.75)) was -1.01; in series [3] (octanol/water, error (mean logP to three decimals), reference FE (-0.75)) it was -1.01; in series [3] (single experiment, reference FE (-0.75)), -1.006 and -1.012.
Turning to `CCCC(C)O` (stereo not shown) [G, 2-PentOH, reference compound], the “logP (lit)” value in series [1] (setting [10]) is reported as “+1.19”.
